This test concerns Melanoderm tissue equivalent model MEL-300 (MatTek) containing melanocytes obtained from dark skin individuals. Description: Melanoderm tissue equivalent melanin content (inhibition of melanogenesis). In kind it is cell-based. Conditions: Melanocyte, 336 h, total melanin content vs DMSO vehicle, 5 μM in maintenance medium, 14 days. As for the experimental part: Melanoderm tissue equivalent model MEL-300 (MatTek: Ashland, Mass.) containing melanocytes obtained from dark skin individuals were cultured as per supplier instructions. Components were added to the maintenance medium phase (no topical treatments) at a final concentration of 5 μM for 14 days at which time the experiment was terminated and the tissues assessed for melanin content. Medium and treatments were changed three times per week. DMSO was utilized as the vehicle control and all treatments were performed at least in duplicate.
For quantification of total melanin, each Melanoderm was placed into an individual Eppendorf tube (2 mL) into which 250 μL of Solvable™ tissue solubilizer (Packard Bioscience Co., Cat#6NE9100) was added. Each tube was vortexed and incubated at 60° C. for 18 hours. Each sample was then centrifuged (5-minutes at 13,000 RPMs) to remove any particulates. 100 or 200 μL of supernatant were transferred to a 96 well microtiter plate and the absorbance read at 490 nm. Total melanin content was calculated from a standard curve using synthetic melanin (Sigma Cat# M8631). Data was analyzed for significance using the t-test in Microsoft Excel to generate p-values (p-values less than 0.01 represent 99% confidence, p values of 0.05 represent 95% confidence both of which are statistically significant).

Usually inhibition stands for the change of the read-out against control, counted positive when it falls. As to `CCN(CC)Cc1cccc(COc2ccccc2)c1` [5a, N-(3-(phenoxymethyl)benzyl)-N-ethylethanamine], the inhibition at 5 µM worked out at 14.4%.

`CCN(CC)Cc1cccc(COc2ccccc2C)c1` [5b, N-(3-((o-tolyloxy)methyl)benzyl)-N-ethylethanamine]: the inhibition at 5 µM was found to be 27.1%.

Turning to `CCc1ccccc1OCc1cccc(CN(CC)CC)c1` [5c, N-(3-((2-ethylphenoxy)methyl)benzyl)-N-ethylethanamine], the inhibition at 5 µM worked out at 30.7%.

On to `CCN(CC)Cc1cccc(COc2ccccc2OC)c1` [5d, N-(3-((2-methoxyphenoxy)methyl)benzyl)-N-ethylethanamine], for which the inhibition at 5 µM worked out at 9.3%.

As for `COc1ccccc1OCc1cccc(CNC(C)C)c1` [5e, N-(3-((2-methoxyphenoxy)methyl)benzyl)propan-2-amine], the inhibition at 5 µM worked out at 14.7%.

`CCN(C)Cc1cccc(COc2ccccc2OC)c1` [5f, N-(3-((2-methoxyphenoxy)methyl)benzyl)-N-methylethanamine]: the inhibition at 5 µM worked out at 20.8%.

For the compound `CCN(CC)Cc1cccc(COc2ccccc2C(C)C)c1` [5g, N-(3-((2-isopropylphenoxy)methyl)benzyl)-N-ethylethanamine], the inhibition at 5 µM came to 29.9%.

As to `CCN(CC)Cc1cccc(COc2cccc3ccccc23)c1` [5h, N-(3-((naphthalen-1-yloxy)methyl)benzyl)-N-ethylethanamine], the inhibition at 5 µM is 33.5%.

For `CN(C)Cc1cccc(COc2cccc3ccccc23)c1` [5i, N,N-dimethyl(3-((naphthalen-1-yloxy)methyl)phenyl)methanamine], the inhibition at 5 µM stood at 25.3%.

As for `CC(C)NCc1cccc(COc2cccc3ccccc23)c1` [5j, N-(3-((naphthalen-1-yloxy)methyl)benzyl)propan-2-amine], the inhibition at 5 µM came to 26.5%.

In the case of `CCc1ccc(OCc2cccc(CN(C)C)c2)cc1` [5k], the inhibition at 5 µM is -0.6%.

For `CCc1ccccc1OCc1cccc(CN(C)C)c1` [5m, (3-((2-ethylphenoxy)methyl)phenyl)-N,N-dimethylmethanamine], the inhibition at 5 µM amounted to 31.6%.

As to `CCc1ccccc1OCc1cccc(CNC)c1` [5q, (3-((2-ethylphenoxy)methyl)phenyl)-N-methylmethanamine], the inhibition at 5 µM stood at 42.3%.

For the compound `CCNCc1cccc(COc2ccccc2CC)c1` [5r, N-(3-((2-ethylphenoxy)methyl)benzyl)ethanamine], the inhibition at 5 µM stood at 33.9%.

`NCc1cccc(COc2cccc3ccccc23)c1` [5s, (3-((naphthalen-1-yloxy)methyl)phenyl)methanamine]: the inhibition at 5 µM was 4%.

In the case of `CNCc1cccc(COc2cccc3ccccc23)c1` [5t, N-methyl(3-((naphthalen-1-yloxy)methyl)phenyl)methanamine], the inhibition at 5 µM worked out at 27.1%.

As to `CCNCc1cccc(COc2cccc3ccccc23)c1` [5u, N-((3-((naphthalen-1-yloxy)methyl)phenyl)methyl)ethanamine], the inhibition at 5 µM is 42.5%.

The record behind these values is patent publication US8425885B2, “Substituted 3-(phenoxymethyl) benzyl amines and personal care compositions” (Conopco, Inc., priority 2009, dated 2013).
